{
  "source": "paper PMC8637149",
  "about": "(Heliyon, 2021)",
  "key": {"ZmPEPC-C4 [1]": {"molecular_target": "T1, ZmPEPC-C4 (Zea mays, UniProt Q84KR7)", "T1 sequence (Q84KR7 1-970)": "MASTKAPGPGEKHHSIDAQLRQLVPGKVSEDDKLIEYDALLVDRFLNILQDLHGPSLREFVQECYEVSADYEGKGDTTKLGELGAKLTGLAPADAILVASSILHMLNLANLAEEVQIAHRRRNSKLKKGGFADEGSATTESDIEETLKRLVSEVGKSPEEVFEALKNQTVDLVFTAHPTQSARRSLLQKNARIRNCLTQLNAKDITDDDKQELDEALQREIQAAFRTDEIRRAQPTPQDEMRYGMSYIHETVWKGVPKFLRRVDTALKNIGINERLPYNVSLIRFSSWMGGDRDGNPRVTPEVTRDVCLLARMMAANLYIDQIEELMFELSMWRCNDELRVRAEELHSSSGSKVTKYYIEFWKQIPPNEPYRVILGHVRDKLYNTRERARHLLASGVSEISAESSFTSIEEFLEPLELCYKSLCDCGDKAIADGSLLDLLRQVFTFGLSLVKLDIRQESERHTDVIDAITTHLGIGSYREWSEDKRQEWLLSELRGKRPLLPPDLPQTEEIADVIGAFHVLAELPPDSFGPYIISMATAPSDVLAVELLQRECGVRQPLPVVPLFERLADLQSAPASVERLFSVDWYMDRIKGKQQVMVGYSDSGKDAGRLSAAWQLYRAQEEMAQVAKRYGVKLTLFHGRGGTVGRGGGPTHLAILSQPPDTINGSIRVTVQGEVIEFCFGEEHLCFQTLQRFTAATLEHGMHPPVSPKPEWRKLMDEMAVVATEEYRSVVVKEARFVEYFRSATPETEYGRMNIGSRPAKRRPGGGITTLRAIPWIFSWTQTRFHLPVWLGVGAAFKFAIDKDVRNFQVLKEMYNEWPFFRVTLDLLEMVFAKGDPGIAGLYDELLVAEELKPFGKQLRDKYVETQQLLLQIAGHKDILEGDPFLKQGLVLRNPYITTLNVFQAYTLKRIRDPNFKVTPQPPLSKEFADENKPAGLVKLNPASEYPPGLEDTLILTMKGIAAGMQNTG", "assay": "ANS fluorescence titration, emission […] nm", "format": "binding"}, "ZmPEPC-C4 [2]": {"molecular_target": "T1, ZmPEPC-C4", "assay": "near-UV CD and limited trypsin proteolysis", "format": "binding", "conditions": "15 mM G6P, pH 7.3; allosteric activator; no effect on ANS fluorescence"}, "ZmPEPC-C4 [3]": {"molecular_target": "T1, ZmPEPC-C4", "assay": "quenching of ANS-enzyme fluorescence at […] nm, Hill-type fit", "format": "binding"}, "ZmPEPC-C4 [4]": {"molecular_target": "T1, ZmPEPC-C4", "assay": "coupled malic dehydrogenase assay, NADH oxidation at […] nm", "format": "biochemical", "conditions": "read-out: % inhibition at 10 mM"}},
  "data": [
    {"smiles": "O=S(=O)(O)c1cccc2cccc(Nc3ccccc3)c12", "note": "[ANS]", "values": [
      {"measurement": "Kd", "setting": "ZmPEPC-C4 [1]", "result": "14.5 ± 1.5", "unit": "µM"}
    ]},
    {"smiles": "O=P(O)(O)OC[C@H]1OC(O)[C@H](O)[C@@H](O)[C@@H]1O", "note": "(stereo partly shown) [G6P]", "values": [
      {"measurement": "near-UV CD and limited trypsin proteolysis", "setting": "ZmPEPC-C4 [2]", "result": "differences were also observed in the CD spectra of the E-PEP, E-G6P, and E-Gly complexes"}
    ]},
    {"smiles": "O=C(O)C[C@H](O)C(=O)O", "note": "[malate]", "values": [
      {"measurement": "Kd", "setting": "ZmPEPC-C4 [3]", "result": "360 ± 70", "unit": "µM"},
      {"measurement": "inhibition at 10000 µM", "setting": "ZmPEPC-C4 [4]", "result": "84.5 ± 0.2", "unit": "%"}
    ]}
  ]
}
